Assays:
HSV-1 strain WT-51 = test: HSV-1 skin infection mouse model (in vivo test); set-up: species or system HR-1 hairless mouse; conditions: for Lesion inhibitory ratio (%): oral twice a day for 5 days
Protocol: Using a cutaneous HSV-1 infection mouse model prepared in accordance with the method of H. Machida et al. (Antiviral Res., 1992, 17, 133-143), in vivo activity of the pharmaceutical composition of the present invention was tested. The skin of each HR-1 hairless mouse [female, 7 weeks of age] was scratched lengthwise and breadthwise several times using a needle and a virus suspension (HSV-1 strain WT-51, 1.5×10^4 PFU/15 μl) was dropped to the scarified region for infection, while anesthetized with diethyl ether.
Regarding the compounds to be tested, VCV was used as the polymerase inhibitor and made into a methyl cellulose suspension, the compound of Preparation 2, N-(4-methylphenyl)-N-(2-{[4-(1,3-oxazol-4-yl)phenyl]amino}-2-oxoethyl)tetrahydro-2H-thiopyran-4-carboxamide 1,1-dioxide, which is described later, was used as the helicase-primase inhibitor and made into a methyl cellulose suspension, and they were orally administered at the doses of the following table twice a day for 5 days starting after 3 hours of the infection. The symptom of the skin lesion caused by HSV-1 infection were classified in the following scores for 17 days:
Score 0: no signs of infection.
Score 1: localized, barely perceptible small vesicles.
Score 2: slight vesicle spread.
Score 3: large patches of vesicles formed.
Score 4: zosteriform vesicles.
Score 5: large patches of ulcers formed.
Score 6: zosteriform with severe large ulcers.
Score 7: hind limb paralysis or death.
The AUC value was calculated from each group's mean disease score, and the disease inhibitory rate of the group administered with each test compound to the placebo group was calculated using the AUC.
In the same manner as described in the above, VCV was used as the polymerase inhibitor and the compound of Preparation 27, N-(2,6-dimethylphenyl)-N-(2-{[4-(1,2,4-oxadiazol-3-yl)phenyl]amino}-2-oxoethyl)tetrahydro-2H-thiopyran-4-carboxamide 1,1-dioxide, which is described later, was used as the helicase-primase inhibitor, with the results shown in the following table.

[1] = target: T1, HSV-1 helicase-primase complex (Human herpesvirus 1, UniProt P10189+P10236); test: Helicase-primase inhibitory activity (DNA-dependent ATPase activity, Malachite Green); assay type: biochemical
T1 construct: made in house; host or cells: Baculovirus expression; The baculoviruses came from Dr. Nigel D. Stow (MRC, UK)
Protocol: Using an Baculoviruses for expressing respective proteins of UL5, UL52 and UL8 which constitute an HSV-1 helicase-primase complex (obtained from Dr. Nigel D. Stow, Medical Research Council, UK), a recombinant HSV-1 helicase-primase complex was prepared by the method described in a report of Crute et al. (J. B. C., 1991, Vol. 266, p. 21252-21256). Detection of DNA-dependent ATPase activity of the HSV-1 helicase-primase complex was carried out in reference to the method described in a report of Crute et al. (J. B. C., 1991, Vol. 266, p. 4484-4488). In brief, 520 ng of the HSV-1 helicase-primase complex was allowed to undergo the reaction at 30° C. for 30 minutes in a reaction liquid containing 20 μg/ml of heat-denatured bovine sperm DNA and 2 mM ATP, and then concentration of phosphoric acid formed through the hydrolysis of ATP into ADP and monophosphate by the activity of ATPase was determined by adding the same volume of Malachite Green reagent (0.03% Malachite Green, 0.1% ammonium molybdate, 4.8% sulfuric acid) and measuring the resulting absorbance at 650 nm. The 50% inhibition concentration (IC50 value) of each compound to be tested for HSV-1 helicase-primase DNA-dependent ATPase was calculated as the concentration which halves the phosphoric acid concentration at the time of not adding the compound.

T1 sequence (P10236 whole entry): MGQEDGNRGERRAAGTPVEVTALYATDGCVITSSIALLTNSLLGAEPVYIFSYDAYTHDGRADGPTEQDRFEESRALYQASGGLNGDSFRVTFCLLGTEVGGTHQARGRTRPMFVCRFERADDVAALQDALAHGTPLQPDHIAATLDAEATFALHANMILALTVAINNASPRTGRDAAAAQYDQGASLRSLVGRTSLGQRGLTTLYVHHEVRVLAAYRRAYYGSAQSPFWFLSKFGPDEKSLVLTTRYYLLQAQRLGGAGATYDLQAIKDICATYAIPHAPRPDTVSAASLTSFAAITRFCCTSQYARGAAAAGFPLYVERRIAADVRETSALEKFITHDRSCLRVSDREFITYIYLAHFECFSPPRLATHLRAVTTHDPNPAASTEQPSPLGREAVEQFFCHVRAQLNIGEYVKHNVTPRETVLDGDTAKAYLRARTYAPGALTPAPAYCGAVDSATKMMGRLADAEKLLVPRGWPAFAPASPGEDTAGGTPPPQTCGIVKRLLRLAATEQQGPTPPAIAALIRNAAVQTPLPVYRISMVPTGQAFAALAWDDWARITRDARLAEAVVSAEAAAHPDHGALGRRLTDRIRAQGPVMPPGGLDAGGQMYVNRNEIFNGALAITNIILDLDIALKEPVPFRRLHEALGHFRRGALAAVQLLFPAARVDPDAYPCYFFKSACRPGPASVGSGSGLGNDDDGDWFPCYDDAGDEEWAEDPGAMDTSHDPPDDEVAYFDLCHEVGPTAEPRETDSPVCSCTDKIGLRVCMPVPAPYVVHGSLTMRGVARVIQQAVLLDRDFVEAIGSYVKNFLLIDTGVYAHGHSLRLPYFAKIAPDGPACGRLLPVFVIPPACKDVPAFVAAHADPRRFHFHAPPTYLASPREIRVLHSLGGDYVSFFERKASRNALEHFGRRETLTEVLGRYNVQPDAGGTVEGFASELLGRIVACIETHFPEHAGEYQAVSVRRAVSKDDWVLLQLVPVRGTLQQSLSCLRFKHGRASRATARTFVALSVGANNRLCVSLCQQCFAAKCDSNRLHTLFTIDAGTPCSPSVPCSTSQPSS
T1 sequence (P10192 whole entry, further chain): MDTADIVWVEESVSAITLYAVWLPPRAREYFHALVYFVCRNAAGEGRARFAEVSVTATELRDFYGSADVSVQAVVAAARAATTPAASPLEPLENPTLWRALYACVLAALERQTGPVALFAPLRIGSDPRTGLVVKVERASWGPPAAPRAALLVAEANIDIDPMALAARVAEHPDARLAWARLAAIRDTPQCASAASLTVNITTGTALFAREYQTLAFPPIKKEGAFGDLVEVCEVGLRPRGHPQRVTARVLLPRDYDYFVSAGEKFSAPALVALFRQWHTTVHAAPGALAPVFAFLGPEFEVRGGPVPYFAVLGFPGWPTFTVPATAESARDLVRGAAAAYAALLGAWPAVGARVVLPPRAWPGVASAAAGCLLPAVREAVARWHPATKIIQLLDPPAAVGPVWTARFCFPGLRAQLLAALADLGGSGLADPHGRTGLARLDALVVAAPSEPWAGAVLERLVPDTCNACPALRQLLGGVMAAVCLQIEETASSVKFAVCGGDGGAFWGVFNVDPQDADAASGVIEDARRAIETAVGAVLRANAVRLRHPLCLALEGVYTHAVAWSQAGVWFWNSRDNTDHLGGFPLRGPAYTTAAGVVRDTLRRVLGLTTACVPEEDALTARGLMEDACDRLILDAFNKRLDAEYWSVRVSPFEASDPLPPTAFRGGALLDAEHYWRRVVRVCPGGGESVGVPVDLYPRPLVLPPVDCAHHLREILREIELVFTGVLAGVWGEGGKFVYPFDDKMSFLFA
T1 sequence (P10189 whole entry): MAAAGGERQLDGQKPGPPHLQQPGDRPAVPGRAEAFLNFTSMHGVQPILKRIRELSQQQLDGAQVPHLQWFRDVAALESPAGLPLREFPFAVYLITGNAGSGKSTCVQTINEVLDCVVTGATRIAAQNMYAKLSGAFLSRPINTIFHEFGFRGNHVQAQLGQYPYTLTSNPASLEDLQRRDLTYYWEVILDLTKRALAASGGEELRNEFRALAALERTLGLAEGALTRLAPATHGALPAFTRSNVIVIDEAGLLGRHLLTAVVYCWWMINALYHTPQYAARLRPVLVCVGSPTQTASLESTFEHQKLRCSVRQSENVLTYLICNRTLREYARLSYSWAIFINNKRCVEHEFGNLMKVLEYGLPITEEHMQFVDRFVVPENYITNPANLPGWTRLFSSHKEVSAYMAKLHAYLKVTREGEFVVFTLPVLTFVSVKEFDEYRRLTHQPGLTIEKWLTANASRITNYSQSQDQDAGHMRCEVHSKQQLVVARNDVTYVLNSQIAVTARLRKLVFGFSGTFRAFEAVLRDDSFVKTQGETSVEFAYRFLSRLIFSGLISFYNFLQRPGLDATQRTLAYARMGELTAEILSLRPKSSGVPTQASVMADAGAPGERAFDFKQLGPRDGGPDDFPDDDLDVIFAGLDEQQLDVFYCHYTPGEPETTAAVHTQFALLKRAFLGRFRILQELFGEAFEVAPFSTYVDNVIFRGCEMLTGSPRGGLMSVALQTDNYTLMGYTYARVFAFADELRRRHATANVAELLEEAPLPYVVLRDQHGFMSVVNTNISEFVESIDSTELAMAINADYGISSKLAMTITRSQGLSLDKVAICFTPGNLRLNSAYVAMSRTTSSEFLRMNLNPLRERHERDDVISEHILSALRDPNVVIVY

Compound: Cc1cccc(C)c1N(CC(=O)Nc1ccc(-c2ncon2)cc1)C(=O)C1CCS(=O)(=O)CC1 [Preparation 27, N-(2,6-dimethylphenyl)-N-(2-{[4-(1,2,4-oxadiazol-3-yl)phenyl]amino}-2-oxoethyl)tetrahydro-2H-thiopyran-4-carboxamide 1,1-dioxide]
- Lesion inhibitory ratio (%) (HSV-1 strain WT-51; Table 3, compound of Preparation 27 1 mg/kg, VCV 0 mg/kg): 33%
- Lesion inhibitory ratio (%) (HSV-1 strain WT-51; Table 3, compound of Preparation 27 3 mg/kg, VCV 0 mg/kg): 68%
- Lesion inhibitory ratio (%) (HSV-1 strain WT-51; Table 3, concomitant use: VCV 10 mg/kg + compound of Preparation 27 1 mg/kg): 66%
- Lesion inhibitory ratio (%) (HSV-1 strain WT-51; Table 3, concomitant use: VCV 10 mg/kg + compound of Preparation 27 3 mg/kg): 86%
- Lesion inhibitory ratio (%) (HSV-1 strain WT-51; Table 3, concomitant use: VCV 30 mg/kg + compound of Preparation 27 1 mg/kg): 88%
- Lesion inhibitory ratio (%) (HSV-1 strain WT-51; Table 3, concomitant use: VCV 30 mg/kg + compound of Preparation 27 3 mg/kg): 100%
- lesion inhibitory activity (in words) (HSV-1 strain WT-51; concomitant use groups VCV 10 mg/kg + 3 mg/kg, VCV 30 mg/kg + 1 mg/kg, VCV 30 mg/kg + 3 mg/kg of the compound of Preparation 27, compared with VCV single administration): good lesion inhibitory activity in comparison with the VCV single administration group
- inhibition of the lesions (in words) (HSV-1 strain WT-51; concomitant use of 30 mg/kg of VCV with 3 mg/kg of the compound of Preparation 27): completely inhibited the lesions
- IC50 [1]: 110 nM

Compound: Cc1ccc(N(CC(=O)Nc2ccc(-c3cocn3)cc2)C(=O)C2CCS(=O)(=O)CC2)cc1 [Preparation 2, N-(4-methylphenyl)-N-(2-{[4-(1,3-oxazol-4-yl)phenyl]amino}-2-oxoethyl)tetrahydro-2H-thiopyran-4-carboxamide 1,1-dioxide]
- Lesion inhibitory ratio (%) (HSV-1 strain WT-51; Table 2, compound of Preparation 2 1 mg/kg, VCV 0 mg/kg, AUC of disease score over 17 days vs placebo): 38%
- Lesion inhibitory ratio (%) (HSV-1 strain WT-51; Table 2, compound of Preparation 2 3 mg/kg, VCV 0 mg/kg): 52%
- Lesion inhibitory ratio (%) (HSV-1 strain WT-51; Table 2, concomitant use: VCV 10 mg/kg + compound of Preparation 2 1 mg/kg): 76%
- Lesion inhibitory ratio (%) (HSV-1 strain WT-51; Table 2, concomitant use: VCV 10 mg/kg + compound of Preparation 2 3 mg/kg): 83%
- Lesion inhibitory ratio (%) (HSV-1 strain WT-51; Table 2, concomitant use: VCV 30 mg/kg + compound of Preparation 2 1 mg/kg): 86%
- Lesion inhibitory ratio (%) (HSV-1 strain WT-51; Table 2, concomitant use: VCV 30 mg/kg + compound of Preparation 2 3 mg/kg): 91%
- lesion inhibitory activity (in words) (HSV-1 strain WT-51; concomitant use group of VCV with the compound of Preparation 2, compared with VCV single administration): good lesion inhibitory activity in comparison with the VCV single administration group
- inhibition of the lesions (in words) (HSV-1 strain WT-51; concomitant use of 30 mg/kg of VCV with 3 mg/kg of the compound of Preparation 2): almost completely inhibited the lesions
- IC50 [1]: 84 nM

Compound: CC(C)[C@H](N)C(=O)OCCOCn1cnc2c(=O)[nH]c(N)nc21 [VCV, valacyclovir, reference compound]
- Lesion inhibitory ratio (%) (HSV-1 strain WT-51; Table 2, VCV 10 mg/kg alone): 45%
- Lesion inhibitory ratio (%) (HSV-1 strain WT-51; Table 2, VCV 30 mg/kg alone): 57%
- Lesion inhibitory ratio (%) (HSV-1 strain WT-51; Table 3, VCV 10 mg/kg alone): 42%
- Lesion inhibitory ratio (%) (HSV-1 strain WT-51; Table 3, VCV 30 mg/kg alone): 52%

Source: US20090042915A1, “PREVENTIVE OR THERAPEUTIC AGENT FOR HERPESVIRUS-RELEATED DISEASE” (ASTELLAS PHARMA INC., priority 2005, published 2009)
